In ChEMBL document CHEMBL5038666, “Discovery of DNA-Targeting HDAC Inhibitors with Potent Antitumor Efficacy In Vivo That Trigger Antitumor Immunity” (J Med Chem, 2022):
One block for each compound: values may come before it. The source made the active and inactive calls. No cut-off for these calls is given here.

Legend:
KG-1 [1] = experiment: Induction of apoptosis in human KG-1 cells measured after 24 hrs by Annexin V-FITC/propidium iodide staining based flow cytometry analysis; format: functional, cell-based; details: dose 0.5-1 µM
Histone deacetylase 1 = Histone deacetylase 1 (Homo sapiens, UniProt Q13547); experiment: Inhibition of HDAC1 (unknown origin) using fluorogenic substrate incubated for 30 mins by fluorescence based assay
Chain of Histone deacetylase 1 (Q13547 whole entry): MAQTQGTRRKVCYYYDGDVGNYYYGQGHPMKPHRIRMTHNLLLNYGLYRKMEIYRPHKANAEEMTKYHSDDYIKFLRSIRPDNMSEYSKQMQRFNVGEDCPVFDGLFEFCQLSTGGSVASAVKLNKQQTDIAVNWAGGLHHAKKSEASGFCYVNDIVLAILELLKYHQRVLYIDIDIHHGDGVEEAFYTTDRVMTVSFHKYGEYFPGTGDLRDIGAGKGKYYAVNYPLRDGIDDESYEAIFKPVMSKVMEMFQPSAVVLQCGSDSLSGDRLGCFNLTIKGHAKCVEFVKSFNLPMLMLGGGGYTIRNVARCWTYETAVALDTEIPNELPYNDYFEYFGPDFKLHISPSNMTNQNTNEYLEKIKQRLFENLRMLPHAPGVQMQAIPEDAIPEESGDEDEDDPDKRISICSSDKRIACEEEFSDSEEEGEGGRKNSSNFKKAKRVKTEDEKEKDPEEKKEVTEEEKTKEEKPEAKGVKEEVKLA

Calf thymus DNA [2] = experiment: Binding affinity to calf thymus DNA assessed as change in entropy at 500 microM by isothermal titration calorimetric analysis; format: nucleic-acid assay; details: Bos taurus
HepG2 = experiment: cells; format: functional, cell-based; details: Homo sapiens, HepG2, 48 h
Description: Antiproliferative activity against human HepG2 cells assessed as inhibition of cell growth measured after 48 hrs by MTT assay

KG-1 [3] = experiment: Potency index, ratio of SAHA IC50 to test compound IC50 for antiproliferative activity against human KG1 cells assessed as inhibition of cell growth measured after 48 hrs by MTT assay; format: functional
[4] = target: T1, Histone deacetylase (Homo sapiens) (UniProt Q13547+O15379+Q9UBN7+Q92769+Q9UQL6+Q8WUI4+Q9BY41+Q96DB2+P56524+Q9UKV0+Q969S8); experiment: Inhibition of HDAC in human KG-1 cells assessed as increase in acetylation of histone H3 measured after 24 hrs by Western blot analysis; format: cell-based; details: dose 0.5-2.5 µM
[5] = target: T1, Histone deacetylase (Homo sapiens); experiment: Inhibition of HDAC in human KG1 cells assessed as increase in acetylation of alpha tubulin measured after 24 hrs by Western blot analysis; format: cell-based; details: KG-1, dose 0.5-2.5 µM
KG-1 [6] = experiment: Downregulation of SPT16 expression in human KG-1 cells assessed as chromatin damage at 0.5 to […] measured after 24 hrs by Western blot analysis; format: functional, cell-based; details: dose 0.5-2.5 µM
KG-1 [7] = experiment: Downregulation of SSRP-1 expression in human KG-1 cells assessed as chromatin damage at 0.5 to […] measured after 24 hrs by Western blot analysis; format: functional, cell-based; details: dose 0.5-2.5 µM
KG-1 [8] = experiment: Induction of apoptosis in human KG-1 cells assessed as total apoptotic cells at 1 uM measured after 24 hrs by Annexin V-FITC/propidium iodide staining based flow cytometry analysis relative to control; format: functional
KG-1 [9] = experiment: Induction of apoptosis in human KG-1 cells assessed as increase in cleaved active caspase 3 level at 0.5 to […] measured after 24 hrs by Western blot analysis; format: functional, cell-based; details: dose 0.5-2.5 µM
[10] = Toxicity in mouse xenografted with HEL cells assessed as effect on body weight at 90 mg/kg, ip administered for 20 days; format: organism-based; details: in vivo, 480 h, time 20 day
B16-F10 [11] = experiment: Antitumor activity against mouse B16-F10 cells implanted in C57BL/6J mouse assessed as reduction on tumor volume at 60 mg/kg, IG administered for 12 days; format: functional, organism-based; details: time 12.0 day
[12] = Toxicity in C57BL/6J mouse implanted with mouse B16-F10 cells assessed as effect on body weight at 60 mg/kg, IG administered for 12 days; format: organism-based; details: in vivo, po, 288 h, time 12 day
[13] = Toxicity in C57BL/6J mouse implanted with mouse B16-F10 cells assessed as glomerular structure damage in kidney at 60 mg/kg, IG administered for 12 days H and E staining based histopathological analysis; format: organism-based; details: in vivo, po, 288 h, time 12 day
[14] = Toxicity in C57BL/6J mouse implanted with mouse B16-F10 cells assessed as liver damage at 60 mg/kg, IG administered for 12 days H and E staining based histopathological analysis; format: organism-based; details: in vivo, po, 288 h, time 12 day
[15] = Toxicity in C57BL/6J mouse implanted with mouse B16-F10 cells assessed as heart damage at 60 mg/kg, IG administered for 12 days H and E staining based histopathological analysis; format: organism-based; details: in vivo, po, 288 h, time 12 day
[16] = Toxicity in C57BL/6J mouse implanted with mouse B16-F10 cells assessed as spleen damage at 60 mg/kg, IG administered for 12 days H and E staining based histopathological analysis; format: organism-based; details: in vivo, po, 288 h, time 12 day
B16-F10 [17] = experiment: Antitumor immunity against mouse B16-F10 cells implanted in C57BL/6J mouse assessed as increase in proportion of T cells in spleen by flow cytometry analysis; format: functional, cell-based
Calf thymus DNA [18] = experiment: Binding affinity to calf thymus DNA assessed as increase in absorption at 20 uM by UV-vis absorption spectroscopy; format: nucleic-acid assay; details: Bos taurus
[19] = Toxicity in C57BL/6J mouse implanted with mouse B16-F10 cells assessed as lung damage at 60 mg/kg, IG administered for 12 days H and E staining based histopathological analysis; format: organism-based; details: in vivo, po, 288 h, time 12 day
B16-F10 [20] = experiment: Antitumor immunity against mouse B16-F10 cells implanted in C57BL/6J mouse assessed as fold increase of CD8+ T cells in spleen by flow cytometry analysis relative to control; format: functional
B16-F10 [21] = experiment: Antitumor immunity against mouse B16-F10 cells implanted in C57BL/6J mouse assessed as fold increase of CD4+ T cells in spleen by flow cytometry analysis relative to control; format: functional
B16-F10 [22] = experiment: Antitumor immunity against mouse B16-F10 cells implanted in C57BL/6J mouse assessed as fold increase of CD3+ T cells in spleen by flow cytometry analysis relative to control; format: functional
B16-F10 [23] = experiment: Antitumor immunity against mouse B16-F10 cells implanted in C57BL/6J mouse assessed as fold increase in CD107a expression by flow cytometry analysis relative to control; format: functional
B16-F10 [24] = experiment: Antitumor immunity against mouse B16-F10 cells implanted in C57BL/6J mouse assessed as fold increase in ICOS expression by flow cytometry analysis relative to control; format: functional
B16-F10 [25] = experiment: Antitumor immunity against mouse B16-F10 cells implanted in C57BL/6J mouse assessed as fold increase in CD69 expression by flow cytometry analysis relative to control; format: functional
B16-F10 [26] = experiment: Antitumor immunity against mouse B16-F10 cells implanted in C57BL/6J mouse assessed as fold increase in IFN-gamma secretion by flow cytometry analysis relative to control; format: functional
B16-F10 [27] = experiment: Antitumor immunity against mouse B16-F10 cells implanted in C57BL/6J mouse assessed as increase in proportion of dendritic cells by flow cytometry analysis; format: functional, cell-based
B16-F10 [28] = experiment: Antitumor immunity against mouse B16-F10 cells implanted in C57BL/6J mouse assessed as fold reduction in M2 macrophages in tumor microenvironment by flow cytometry analysis relative to control; format: functional

IC50 (Histone deacetylase 1): 0.024 µM
-TdeltaS (Calf thymus DNA [2]): 310 kJ/mol
IC50 (HepG2): 3.9 µM
Activity [4]: Dose-Dependent Effect
Activity [5]: Dose-Dependent Effect
Activity (Calf thymus DNA [18]): Active
Compound: O=C(CCCCCCOc1cccc(-c2nc3ccccc3[nH]2)c1)NO
Activity (KG-1 [1]): Dose-Dependent Effect
fold change (FC) (KG-1 [3]): 50
Activity (KG-1 [6]): Active
Activity (KG-1 [7]): Active
Activity (KG-1 [8]): 56.9%
Activity (KG-1 [9]): Active
Activity [10]: Non-Toxic
Activity (B16-F10 [11]): Active
Activity [12]: Non-Toxic
Activity [13]: Non-Toxic
Activity [14]: Non-Toxic
Activity [15]: Non-Toxic
Activity [16]: Non-Toxic
Activity (B16-F10 [17]): Active

IC50 (Histone deacetylase 1): 0.052 µM
IC50 (HepG2): 4.8 µM
Compound: O=C(CCCCCCCOc1cccc(-c2nc3ccccc3[nH]2)c1)NO
Activity [10]: Non-Toxic
Activity (B16-F10 [11]): Active
Activity [12]: Non-Toxic
Activity [19]: Non-Toxic
Activity [13]: Toxic
Activity [14]: Non-Toxic
Activity [15]: Non-Toxic
Activity [16]: Non-Toxic
fold change (FC) (B16-F10 [20]): 1.5
fold change (FC) (B16-F10 [21]): 2
fold change (FC) (B16-F10 [22]): 1.6
fold change (FC) (B16-F10 [23]): 1.5
fold change (FC) (B16-F10 [24]): 1.5
fold change (FC) (B16-F10 [25]): 1.5
fold change (FC) (B16-F10 [26]): 1.5
Activity (B16-F10 [27]): inactive
fold change (FC) (B16-F10 [28]): 1.5
